Where “and” joins values, the source holds several entries; their conditions need not be identical. Equal entries are not always repeated. Where two headings read alike, the source gives them in different places.
Assays:
[1] = molecular target: T1, VCB: PROTAC: SMARCA2^BD ternary complex (Homo sapiens, UniProt P51531); assay: TR-FRET ternary complex affinity and cooperativity, SMARCA2; assay type: binding
T1 construct: P51531-2, residues 1373-1493 with additional N-terminal SM residues; GST (TEV site) (N); His6 (TEV site) (N, cleaved yes); made in house; host or cells: SMARCA2^BD: Escherichia coli BL21(DE3)
T1 sequence (P51531 with tags, fused parts or gaps isoform P51531-2): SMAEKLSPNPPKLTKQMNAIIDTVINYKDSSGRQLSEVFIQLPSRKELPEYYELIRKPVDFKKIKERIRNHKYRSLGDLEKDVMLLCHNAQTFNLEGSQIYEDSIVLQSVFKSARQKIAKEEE

[2] = system: NCI-H1568 cells; assay: Cell viability assay (CellTiter Glo) in NCI-H1568; assay type: cell-based, human; details: for EC50: NCI-H1568 ([…]), mean ± SD, read-out: EC50 cell proliferation (CellTiter Glo); for IC50: NCI-H1568, (18h), CellTiter Glo, individual replicates, read-out: NCI-H1568 (18h) CTG
Method: 500–2000 cells were seeded in white, clear bottom 96-well plates (Corning or Perkin Elmer) in 180–200 µl medium per well. The next day, compounds were added using a digital dispenser and a T0 sample was measured for reference. […], and viability (luminescence) was measured using CellTiter Glo or CellTiter Glo 2.0 (Promega) according to manufacturer’s instructions after equilibrating cells and reagents at room temperature and 10–20 min incubation time while shaking.

[3] = molecular target: T2, SMARCA4 (Homo sapiens, UniProt P51532); assay: SMARCA4 capillary electrophoresis protein assay in RKO cells; assay type: cell-based; set-up: endogenous in cells; host or cells: RKO, HCT116, LU99, HCC-364, HCT-15, HCC4006, SK-N-AS; details: mean ± SD
T2 sequence (P51532 whole entry): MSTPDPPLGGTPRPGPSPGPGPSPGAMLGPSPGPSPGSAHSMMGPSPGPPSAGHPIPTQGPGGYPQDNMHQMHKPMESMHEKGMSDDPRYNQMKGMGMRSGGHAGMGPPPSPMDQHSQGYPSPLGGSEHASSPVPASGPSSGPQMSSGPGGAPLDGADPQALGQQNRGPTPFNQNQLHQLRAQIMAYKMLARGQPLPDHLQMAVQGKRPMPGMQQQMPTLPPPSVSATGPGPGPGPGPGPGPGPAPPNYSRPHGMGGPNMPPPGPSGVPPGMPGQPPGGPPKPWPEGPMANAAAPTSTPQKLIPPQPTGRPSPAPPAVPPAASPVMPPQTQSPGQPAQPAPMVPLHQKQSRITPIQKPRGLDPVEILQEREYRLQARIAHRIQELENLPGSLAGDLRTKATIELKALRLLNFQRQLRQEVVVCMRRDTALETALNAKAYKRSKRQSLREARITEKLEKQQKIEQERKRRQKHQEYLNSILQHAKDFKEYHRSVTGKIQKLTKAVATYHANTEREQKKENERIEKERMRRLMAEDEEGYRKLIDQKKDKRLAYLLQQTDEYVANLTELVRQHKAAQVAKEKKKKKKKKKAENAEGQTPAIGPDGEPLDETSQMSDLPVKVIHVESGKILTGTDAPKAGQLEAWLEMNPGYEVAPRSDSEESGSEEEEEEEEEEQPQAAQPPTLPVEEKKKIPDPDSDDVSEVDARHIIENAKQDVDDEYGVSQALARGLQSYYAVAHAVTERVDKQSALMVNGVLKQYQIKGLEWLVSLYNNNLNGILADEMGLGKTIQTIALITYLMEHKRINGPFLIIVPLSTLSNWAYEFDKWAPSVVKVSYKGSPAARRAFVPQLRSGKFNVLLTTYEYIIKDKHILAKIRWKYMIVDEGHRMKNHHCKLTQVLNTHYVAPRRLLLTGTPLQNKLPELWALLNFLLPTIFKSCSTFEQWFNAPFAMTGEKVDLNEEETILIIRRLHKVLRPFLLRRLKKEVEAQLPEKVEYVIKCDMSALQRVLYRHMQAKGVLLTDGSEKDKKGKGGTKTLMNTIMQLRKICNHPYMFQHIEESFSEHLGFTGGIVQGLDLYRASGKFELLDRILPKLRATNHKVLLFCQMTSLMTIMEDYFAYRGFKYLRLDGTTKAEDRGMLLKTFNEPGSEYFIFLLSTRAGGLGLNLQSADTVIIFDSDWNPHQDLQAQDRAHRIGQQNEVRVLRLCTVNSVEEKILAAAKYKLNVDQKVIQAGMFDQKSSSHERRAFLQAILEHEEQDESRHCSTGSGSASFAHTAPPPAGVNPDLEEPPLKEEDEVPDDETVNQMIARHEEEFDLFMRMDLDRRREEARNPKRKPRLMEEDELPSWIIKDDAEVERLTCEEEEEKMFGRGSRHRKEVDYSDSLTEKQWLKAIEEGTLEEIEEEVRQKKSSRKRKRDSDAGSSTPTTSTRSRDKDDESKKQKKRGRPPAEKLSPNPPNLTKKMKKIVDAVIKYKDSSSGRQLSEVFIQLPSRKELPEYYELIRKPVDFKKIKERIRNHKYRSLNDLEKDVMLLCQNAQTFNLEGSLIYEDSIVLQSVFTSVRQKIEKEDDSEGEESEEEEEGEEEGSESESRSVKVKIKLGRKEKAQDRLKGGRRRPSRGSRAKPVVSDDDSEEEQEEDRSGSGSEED
Method: 130,000–200,000 cells were seeded in 24-well plates and incubated until settled down or overnight. Compounds were dissolved in DMSO and added to cells in indicated concentrations using a digital dispenser following an optional media change. Cells were incubated for 4 or 18 h as indicated. For SMARCA2/4 half-life determination, 150,000 or 200,000 cells were seeded in 24-well plates. The next day, 50 µg/ml cycloheximide (Sigma) was added and cells were incubated for 1–24 h. For SMARCA2/4 re-synthesis measurements, 200,000 cells were seeded in 24-well plates. The next day, 100 nM compound 6 was added for 4 h to degrade SMARCA2/4, and a sample was taken as baseline for normalisation. To allow re-synthesis, a VHL binder (compound 32, 25 or 50 µM) was then added for 3 or 24 h. Medium was removed, cells were washed with PBS and lysed with 80 µl Lysis Buffer (MSD Tris Lysis Buffer (#R60TX-2) + Halt Inhibitor Cocktail (100x) + Benzonase 0.5 µL/ml). Samples were frozen at −80 °C and thawed at room temperature before use. Samples were transferred to a V-bottom plate and insoluble debris was pelleted by centrifugation for 5 min at maximum speed. The supernatant was transferred to a fresh plate. Master Mix and Ladder were prepared according to manufacturer’s instructions for 12–230 kDa Wes Separation Module, 8 × 25 capillary cartridges, Protein Simple #SM-W004 with Anti-Rabbit Detection Module for Wes, Peggy Sue or Sally Sue, Protein Simple #DM-001. 4.8 µl lysate were mixed with 1.2 µl Master Mix to achieve a protein concentration of ~0.5 µg/µl. Antibodies were diluted in Antibody Diluent II (SMARCA2 Sigma #HPA029981 RRID:AB_10602406 1:25–100, SMARCA4 Cell Signalling #49360 clone D1Q7F RRID:AB_2728743 1:15–120 or Abcam #ab110641 clone EPNCIR111A RRID:AB_10861578 1:60, GAPDH Abcam #ab9485 RRID:AB_307275 1:250). Wes plates were prepared and run according to manufacturer’s instructions. Proteins were quantified with accompanying Compass Software. SMARCA2/4 protein levels were normalised to GAPDH. […] Where applicable, curves were fitted using a 4-parametric logistic model.

[4] = molecular target: T2, SMARCA4; assay: Imaging-based SMARCA4 protein assay in RKO cells; assay type: cell-based; set-up: endogenous in cells; host or cells: RKO, HCT116, LU99, HCC-364, HCT-15, HCC4006, SK-N-AS; details: individual replicates
Method: 1250 cells per well in 60 µl medium were plated in flat bottom, poly-lysin coated 384-well plates (CellCarrier Ultra, Perkin Elmer). The next day, test compounds (10 µl of serial dilutions) and DMSO controls were diluted in DMEM medium such that the final DMSO content was <1% or were added using an ultrasound dispensing system. 4 wells were reserved for a background measurement. […] After aspirating the fixing solution, the cells were washed once with 25 µl PBS. 25 µl of blocking buffer (10% goat serum in PBS) was added and cells were incubated for 30 min, then washed once with PBS. Cells were stained with 20 µl of SMARCA2/4 primary antibody solution (Sigma #HPA029981 RRID:AB_10602406 1:1000 or Cell Signalling #52251 clone E9O6 RRID:AB_2799410 1:1000 in PBS with 10% FCS) for 2–4 h at room temperature. Cells were again washed once with PBS. […] The cell layer was then washed once with 25 µl PBS, the wells were filled with 25 µl PBS and the plates were sealed with an adhesive sheet. They were then imaged on the Opera Phoenix (mean intensity in the nucleus). Results were computed as percent of controls ((value of test compound − background)/(value of the negative control DMSO—background) multiplied by 100). EC50 values were computed using a 4-parametric logistic model.

[5] = molecular target: VCB: PROTAC: SMARCA4^BD ternary complex (Homo sapiens, UniProt P40337+P51532); assay: TR-FRET ternary complex affinity and cooperativity, SMARCA4; assay type: binding; set-up: P51532, residues 1448–1569 with additional N-terminal SM residues; GST (TEV site) (N); His6 (TEV site) (N, cleaved yes); made in house; host or cells: SMARCA4^BD: Escherichia coli BL21(DE3)
Chain of VCB: PROTAC: SMARCA4^BD ternary complex (P51532 1448-1569): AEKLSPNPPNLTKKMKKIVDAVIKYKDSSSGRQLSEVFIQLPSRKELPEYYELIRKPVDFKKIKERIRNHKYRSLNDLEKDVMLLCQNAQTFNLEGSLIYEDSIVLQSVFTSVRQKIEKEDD
Chain of VCB: PROTAC: SMARCA4^BD ternary complex (P40337 54-213): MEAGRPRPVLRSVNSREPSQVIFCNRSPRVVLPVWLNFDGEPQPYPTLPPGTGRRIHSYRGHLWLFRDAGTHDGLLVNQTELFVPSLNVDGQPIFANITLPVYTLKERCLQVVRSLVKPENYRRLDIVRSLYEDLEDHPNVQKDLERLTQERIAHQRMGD
Chain of VCB: PROTAC: SMARCA4^BD ternary complex (Q15369 17-112 partner): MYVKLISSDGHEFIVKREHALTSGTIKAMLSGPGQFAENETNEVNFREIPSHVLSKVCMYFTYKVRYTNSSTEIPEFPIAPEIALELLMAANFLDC
Chain of VCB: PROTAC: SMARCA4^BD ternary complex (Q15370 1-104 partner): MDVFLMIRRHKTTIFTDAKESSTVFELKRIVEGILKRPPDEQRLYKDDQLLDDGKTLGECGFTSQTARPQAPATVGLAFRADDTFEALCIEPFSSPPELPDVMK

[6] = binary, PROTAC alone, individual replicates, read-out: SMARCA2 BD EC50
[7] = 4h, read-out: RKO (4h) SMARCA4 DC50
[8] = 18h, read-out: RKO (18h) SMARCA4 DC50
[9] = PROTAC + VCB, individual replicates, read-out: Ternary SMARCA4 BD EC50 (PROTAC + VCB)
[10] = TR-FRET competition for SMARCA2BD, without VCB, mean ± SD, read-out: TR-FRET SMARCA2BD EC50
[11] = TR-FRET competition for SMARCA4BD, + VCB, mean ± SD, read-out: TR-FRET Ternary SMARCA4BD EC50 (PROTAC + VCB)

SMILES	EC50 [1, 6]	EC50 [2] [nM]	IC50 [2]	DC50 ([3]; RKO (4 h)) [nM]	DC50 ([3]; RKO (18 h)) [nM]	DC50 [4, 7]	DC50 [4, 8]	EC50 [5, 9]	EC50 [1, 10] [nM]	EC50 [5, 11] [nM]	SMARCA4 Dmax ([3]; RKO (4 h)) [%]	SMARCA4 Dmax ([3]; RKO (18 h)) [%]
CN1CCN(c2nc(=O)c3c(F)cccc3o2)CC1 [compound 17]	> 10000 nM	> 10000	> 10000 nM	> 25000	> 25000	> 25000 nM	> 25000 nM	> 10000 nM				
Cc1ncsc1-c1ccc(CNC(=O)[C@@H]2C[C@H](O)CN2C(=O)[C@@H](NC(=O)C2(F)CC2)C(C)(C)C)c(OCCN2CCC(c3ccc4c(c3)n(C3CCCC3)c3nc(=O)c5c(Br)cccc5n43)CC2)c1 [compound 19]	79.1 nM and 82 nM and 94.2 nM	564 ± 384	595 nM and 1050 nM and 287 nM	> 25000	> 25000	> 25000 nM	> 25000 nM	201 nM and 160 nM and 159 nM	85 ± 7	173 ± 19		
Cc1ncsc1-c1ccc(CNC(=O)[C@@H]2C[C@@H](O)CN2C(=O)[C@@H](NC(=O)C2(F)CC2)C(C)(C)C)c(OCCN2CCC(c3ccc4c(c3)n(C3CCCC3)c3nc(=O)c5c(Br)cccc5n43)CC2)c1 [compound 20]	95.1 nM and 98.5 nM and 63.7 nM and 90.1 nM and 54.6 nM	74 ± 52	80.9 nM and 35.3 nM and 140 nM	> 25000	> 25000	> 25000 nM	> 25000 nM	312 nM and 310 nM and 294 nM and 321 nM	78 ± 20	309 ± 11		
Cc1ncsc1-c1ccc(CNC(=O)[C@@H]2C[C@@H](O)CN2C(=O)[C@@H](NC(=O)C2(F)CC2)C(C)(C)C)c(OCCOCCOCCN2CCC(c3ccc4c(c3)n(C3CCCC3)c3nc(=O)c5c(Br)cccc5n43)CC2)c1 [compound 21]	246 nM and 264 nM and 255 nM	223 ± 30	257 nM and 199 nM and 216 nM	21 ± 19	83 ± 78	22.9 nM and 45.5 nM and 8.98 nM	42.3 nM and 189 nM and 70.5 nM	119 nM and 144 nM and 128 nM	255 ± 9	130 ± 13	61 ± 16	75 ± 3
Cc1ncsc1-c1ccc(CNC(=O)[C@@H]2C[C@@H](O)CN2C(=O)[C@@H](NC(=O)C2(F)CC2)C(C)(C)C)c(OCCOCCOCCOCCN2CCC(c3ccc4c(c3)n(C3CCCC3)c3nc(=O)c5c(Br)cccc5n43)CC2)c1 [compound 22]	242 nM and 328 nM and 288 nM and 245 nM	187 ± 76	280 nM and 175 nM and 133 nM	54 ± 47	77 ± 67	32.8 nM and 118 nM and 40 nM	39.9 nM and 168 nM and 69.1 nM	73.1 nM and 97.3 nM and 87.2 nM and 102 nM	274 ± 41	89 ± 13	84 ± 1	89 ± 5
